Laboratory results from patent US20030092004A1 (priority 2001, published 2003).
Entries after “also recorded” stand apart in the source; their conditions may differ. Where two headings read alike, the source gives them in different places.

Legend:
NR1/NR3B receptors = NR1/NR3B receptors (Rattus norvegicus, UniProt P35439+Q8VHN2); assay: Two-electrode voltage-clamp recording of whole-cell currents in Xenopus oocytes injected with NR1 and NR3B cRNA; type: cell-based; details: for effect on glycine-evoked NR1/NR3B currents on co-application: doses maximally effective at classical NMDARs
Sequence of NR1/NR3B receptors (Q8VHN2 25-1002, other chains not shown): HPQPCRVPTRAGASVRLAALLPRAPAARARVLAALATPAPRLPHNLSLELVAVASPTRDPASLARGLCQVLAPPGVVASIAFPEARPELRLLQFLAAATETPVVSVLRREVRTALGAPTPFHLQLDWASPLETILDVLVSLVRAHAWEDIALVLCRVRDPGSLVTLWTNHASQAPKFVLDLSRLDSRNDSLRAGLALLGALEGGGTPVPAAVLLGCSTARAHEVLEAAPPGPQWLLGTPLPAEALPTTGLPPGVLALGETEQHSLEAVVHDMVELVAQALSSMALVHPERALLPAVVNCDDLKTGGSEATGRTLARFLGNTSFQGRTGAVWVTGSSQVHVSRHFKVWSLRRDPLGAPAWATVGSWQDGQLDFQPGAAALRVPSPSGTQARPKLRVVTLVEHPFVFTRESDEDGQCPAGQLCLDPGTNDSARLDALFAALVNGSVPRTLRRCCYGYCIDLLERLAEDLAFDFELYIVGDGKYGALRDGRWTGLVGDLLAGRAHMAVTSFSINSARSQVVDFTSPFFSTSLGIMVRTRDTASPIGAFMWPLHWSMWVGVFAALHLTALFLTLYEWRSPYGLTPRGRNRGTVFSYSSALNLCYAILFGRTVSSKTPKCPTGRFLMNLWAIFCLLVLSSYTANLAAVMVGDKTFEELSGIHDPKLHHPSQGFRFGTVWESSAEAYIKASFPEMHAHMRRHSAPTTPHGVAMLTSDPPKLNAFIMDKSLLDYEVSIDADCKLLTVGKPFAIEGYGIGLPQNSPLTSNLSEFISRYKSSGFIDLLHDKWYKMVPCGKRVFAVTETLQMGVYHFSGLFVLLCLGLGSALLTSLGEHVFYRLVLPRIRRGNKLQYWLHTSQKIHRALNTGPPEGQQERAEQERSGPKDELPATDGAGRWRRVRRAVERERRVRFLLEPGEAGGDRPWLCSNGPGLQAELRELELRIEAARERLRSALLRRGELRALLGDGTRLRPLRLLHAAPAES
Procedure: Currents were recorded in 1.5 mM Ba^2+ Ringers' solution from oocytes injected with 2 ng of NR1 cRNA and 12 ng of NR3B cRNA.
NR3B cRNA for oocyte expression was produced as follows. The full-length NR3B cDNA was constructed in the pCMV6-XL4 vector (OriGene Technologies, Inc., Rockville, Md.), which contains a T7 promoter upstream of the cDNA insert. […] The truncated cRNA could potentially encode a dominant negative form of NR3B. Therefore, a new vector was constructed to facilitate production of exclusively full-length NR3B cRNA. Construction of this vector proceeded as follows. NR1 cDNA was excised from the pGEM-HE/NR1 vector (a gift from S. F. Heinemann) by digestion with EcoRI and the two ends of the truncated pGEM-HE vector were re-ligated. The truncated pGEM-HE vector retained the 5′ and 3′ UTRs of the X. laevis β-globin gene for high level protein expression in frog oocytes. The SfoI-KpnI fragment of truncated pGEM-HE, which contains the T7 promoter, was replaced with the PvuII-KpnI fragment of pBluescript II KS, which contains the T3 promoter, to generate pJC32. The abbreviated multiple cloning site of pJC32 was then replaced with the multiple cloning site from pcDNA3.1(+) (Invitrogen, Carlsbad, Calif.) by ligating the 102 bp PmeI fragment of pcDNA3.1(+) into the 3 kb SmaI-EcoRV fragment of pJC32 to generate pJC34. Oligos encoding restriction sites for AscI, PacI, and PmeI (ctagc[…]g (SEQ ID NO:52) and ctagc[…]g (SEQ ID NO:53)) were annealed and ligated into the NheI site of pJC34. The resulting vector, pJC39, contains three rare restriction sites downstream of the multiple cloning site to facilitate linearization prior to in vitro transcription using T3 RNA polymerase.
The full-length NR3B (B4 form) cDNA was then excised from pCMV6-XL4 by digestion with EcoRI and XbaI, and the 3.2 kb fragment was ligated into EcoRI/XbaI-digested pJC39. The resulting vector, pJC42, was linearized with PmeI, and in vitro transcription was performed using the mMessage mMachine T3 kit (Ambion, Inc., Austin, Tex.) according to the manufacturer's instructions.
Micropipettes were filled with 3M KCl.

NR1/NR2A receptors = NR1/NR2A receptors (Rattus norvegicus, UniProt P35439+Q00959); assay: Two-electrode voltage-clamp recording of NMDA plus glycine-evoked currents in Xenopus oocytes expressing NR1/NR2A; type: cell-based; details: for effect on NR1/NR2A currents: 100 μM NMDA plus 10 μM glycine
Sequence of NR1/NR2A receptors (Q00959 20-1464 limits assumed, other chains not shown): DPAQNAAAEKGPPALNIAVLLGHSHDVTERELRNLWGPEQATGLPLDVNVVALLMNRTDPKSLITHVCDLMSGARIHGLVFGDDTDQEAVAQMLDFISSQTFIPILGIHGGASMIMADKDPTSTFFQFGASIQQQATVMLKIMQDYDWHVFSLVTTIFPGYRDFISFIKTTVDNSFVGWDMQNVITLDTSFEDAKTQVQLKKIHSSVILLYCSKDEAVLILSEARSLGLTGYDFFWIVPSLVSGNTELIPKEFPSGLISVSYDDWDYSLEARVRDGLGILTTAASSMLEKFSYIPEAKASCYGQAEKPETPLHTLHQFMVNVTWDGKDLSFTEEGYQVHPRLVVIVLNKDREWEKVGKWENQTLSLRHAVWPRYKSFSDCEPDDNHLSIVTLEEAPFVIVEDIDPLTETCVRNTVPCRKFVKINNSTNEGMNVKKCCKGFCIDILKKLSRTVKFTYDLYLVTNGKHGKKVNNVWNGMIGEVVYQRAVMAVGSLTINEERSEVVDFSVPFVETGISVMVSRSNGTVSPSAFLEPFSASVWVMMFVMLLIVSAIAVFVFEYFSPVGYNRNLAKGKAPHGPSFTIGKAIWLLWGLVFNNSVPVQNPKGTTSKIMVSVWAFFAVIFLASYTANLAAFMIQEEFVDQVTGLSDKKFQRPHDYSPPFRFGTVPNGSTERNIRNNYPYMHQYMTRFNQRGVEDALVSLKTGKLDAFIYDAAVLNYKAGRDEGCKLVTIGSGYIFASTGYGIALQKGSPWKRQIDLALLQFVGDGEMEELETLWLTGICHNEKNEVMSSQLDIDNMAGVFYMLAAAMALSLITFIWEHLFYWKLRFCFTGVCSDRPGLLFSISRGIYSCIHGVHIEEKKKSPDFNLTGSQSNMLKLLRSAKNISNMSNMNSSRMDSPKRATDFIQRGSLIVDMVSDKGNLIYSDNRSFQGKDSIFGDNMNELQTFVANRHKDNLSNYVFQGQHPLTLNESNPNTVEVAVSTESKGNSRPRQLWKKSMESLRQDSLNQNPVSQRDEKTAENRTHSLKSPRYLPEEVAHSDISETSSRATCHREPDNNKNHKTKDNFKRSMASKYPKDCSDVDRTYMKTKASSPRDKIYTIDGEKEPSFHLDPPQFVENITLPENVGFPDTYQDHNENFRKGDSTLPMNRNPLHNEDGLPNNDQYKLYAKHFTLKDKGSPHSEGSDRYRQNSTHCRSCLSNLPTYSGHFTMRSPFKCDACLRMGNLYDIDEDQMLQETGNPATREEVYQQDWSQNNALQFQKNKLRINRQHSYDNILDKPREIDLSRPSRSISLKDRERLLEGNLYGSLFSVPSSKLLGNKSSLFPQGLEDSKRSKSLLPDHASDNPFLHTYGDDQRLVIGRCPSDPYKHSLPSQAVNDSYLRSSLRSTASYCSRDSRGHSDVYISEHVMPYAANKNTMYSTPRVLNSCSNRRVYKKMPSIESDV
Procedure: Microinjection of oocytes and electrophysiological recordings were performed as follows. Physiological and pharmacological properties of NMDA receptor subunits were characterized in the X. laevis oocyte expression system. Full-length cDNAs encoding NMDA receptor subunits were linearized and used as templates for synthesis of cRNA by in vitro transcription using T3 or T7 RNA polymerase (Ambion, Inc., Austin, Tex.). The DNA template was removed by DNase I digestion, and the RNA was purified by phenol/chloroform extraction and ethanol precipitation. The RNA was resuspended in water at 1 μg/μl and stored in −80° C. freezer until use. X. laevis oocytes were harvested and defolliculated by digestion with collagenase (2 mg/ml) for 2 hrs. Twenty to 40 ng of cRNA were injected into each oocyte using glass pipettes with a tip size of 20-40 μm in diameter. […] Micropipettes were filled with 3M KCl. […] Drugs were applied to oocytes via a rapid perfusion system. Data were collected at 2.2 to 11.1 Hz at room temperature using the MacLab/4e A/D converter (AD Instruments, Mountain View, Calif.). Data analysis was performed using the programs Chart (AD Instruments, Mountain View, Calif.) and Microsoft Excel.

NR1/NR3A receptors = NR1/NR3A receptors (Rattus norvegicus, UniProt P35439+Q9R1M7); assay: Two-electrode voltage recording of glycine-evoked currents in oocytes injected with NR1 and NR3A subunits
Sequence of NR1/NR3A receptors (Q9R1M7 24-1135, other chains not shown): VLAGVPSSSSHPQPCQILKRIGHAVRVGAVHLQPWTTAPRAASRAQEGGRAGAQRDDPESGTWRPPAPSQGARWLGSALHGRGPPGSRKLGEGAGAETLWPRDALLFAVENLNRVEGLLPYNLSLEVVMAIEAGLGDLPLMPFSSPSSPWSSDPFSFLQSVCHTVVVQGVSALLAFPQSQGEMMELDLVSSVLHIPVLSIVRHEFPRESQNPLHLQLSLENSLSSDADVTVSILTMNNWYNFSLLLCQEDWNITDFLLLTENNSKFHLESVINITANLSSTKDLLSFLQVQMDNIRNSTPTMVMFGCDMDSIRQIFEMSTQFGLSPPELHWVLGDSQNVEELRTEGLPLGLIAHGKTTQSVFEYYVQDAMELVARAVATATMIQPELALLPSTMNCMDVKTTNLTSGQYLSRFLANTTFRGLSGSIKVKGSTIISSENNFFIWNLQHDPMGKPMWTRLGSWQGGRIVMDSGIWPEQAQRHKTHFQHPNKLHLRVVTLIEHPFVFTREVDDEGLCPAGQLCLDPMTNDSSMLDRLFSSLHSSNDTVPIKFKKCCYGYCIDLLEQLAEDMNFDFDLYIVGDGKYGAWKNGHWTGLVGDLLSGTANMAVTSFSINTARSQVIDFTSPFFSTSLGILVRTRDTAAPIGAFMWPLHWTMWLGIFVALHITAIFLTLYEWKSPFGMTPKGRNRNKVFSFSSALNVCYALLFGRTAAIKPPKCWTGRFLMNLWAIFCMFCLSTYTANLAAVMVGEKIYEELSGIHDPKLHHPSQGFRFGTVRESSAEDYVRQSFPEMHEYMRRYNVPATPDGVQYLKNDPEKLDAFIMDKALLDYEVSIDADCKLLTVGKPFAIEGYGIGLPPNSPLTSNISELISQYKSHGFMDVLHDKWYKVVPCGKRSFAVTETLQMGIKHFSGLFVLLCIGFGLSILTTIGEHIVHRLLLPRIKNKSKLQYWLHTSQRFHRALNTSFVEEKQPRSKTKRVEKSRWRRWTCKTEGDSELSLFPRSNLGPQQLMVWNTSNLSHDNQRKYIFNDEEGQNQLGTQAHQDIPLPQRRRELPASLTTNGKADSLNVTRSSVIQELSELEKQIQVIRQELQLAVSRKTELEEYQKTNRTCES
Procedure: Microinjection of oocytes and electrophysiological recordings were performed as follows. Physiological and pharmacological properties of NMDA receptor subunits were characterized in the X. laevis oocyte expression system. […] X. laevis oocytes were harvested and defolliculated by digestion with collagenase (2 mg/ml) for 2 hrs. Twenty to 40 ng of cRNA were injected into each oocyte using glass pipettes with a tip size of 20-40 μm in diameter. Electrophysiological recordings were performed from whole oocytes 2-7 days after injection using a dual-electrode voltage-clamp amplifier (Model OC-725A, Warner Instrument, Hamden, Conn.). Micropipettes were filled with 3M KCl. The bath solution contained 115 mM NaCl, 2.5 mM KCl, 1.5 mM BaCl2, and 10 mM Hepes at pH 7.4. Drugs were applied to oocytes via a rapid perfusion system. Data were collected at 2.2 to 11.1 Hz at room temperature using the MacLab/4e A/D converter (AD Instruments, Mountain View, Calif.). Data analysis was performed using the programs Chart (AD Instruments, Mountain View, Calif.) and Microsoft Excel.

[1] = concentration of compound not given or dose-dependent
[2] = no glutamate/NMDA, 1.5 mM Ba2+ Ringers' solution

NC1(C(=O)O)CC1 [ACPC]
effect on glycine-evoked NR1/NR3B currents on co-application (NR1/NR3B receptors; 10 μM glycine): produces relative inhibition | effect on glycine-evoked NR1/NR3B currents (NR1/NR3B receptors; [1]): inhibited | NR1/NR3B current evoked by compound applied alone (NR1/NR3B receptors; [2]): does not evoke detectable NR1/NR3B currents | NR1/NR2A currents on co-application with NMDA (co-agonist activity) (NR1/NR2A receptors; co-applied with 100 μM NMDA): evokes NR1/NR2A currents

N[C@@H](CS)C(=O)O [L-cysteine]
effect on NR1/NR3B currents evoked by glycine (NR1/NR3B receptors; compound 50 μM, 5 μM glycine): have little effect or only slightly potentiate the current | effect on glycine-evoked NR1/NR3B currents (NR1/NR3B receptors; [1]): slightly potentiated

CN[C@H](CC(=O)O)C(=O)O [NMDA, N-methyl-D-aspartate]
NR1/NR3B current evoked by compound applied alone (NR1/NR3B receptors): little or no effect | effect on glycine-evoked NR1/NR3B currents (NR1/NR3B receptors): little or no effect; also recorded: does not potentiate

N[C@H](CO)C(=O)O [D-serine]
effect on glycine-evoked NR1/NR3B currents on co-application (NR1/NR3B receptors; 10 μM glycine): produces relative inhibition | effect on glycine-evoked NR1/NR3B currents (NR1/NR3B receptors; [1]): dose-dependently inhibits currents; also recorded: inhibited; also recorded: inhibits glycine-evoked responses in a dose-dependent fashion | NR1/NR3B current evoked by compound applied alone (NR1/NR3B receptors; [2]): evokes small NR1/NR3B currents alone | effect on glycine-evoked NR1/NR3A currents (NR1/NR3A receptors): effectively blocked

O=C(O)c1cc(=O)c2c(Cl)cc(Cl)cc2[nH]1 [5,7-dichlorokynurenic acid]
effect on glycine-evoked NR1/NR3B currents (NR1/NR3B receptors; [1]): completely inhibits | effect on glycine-evoked NR1/NR3B currents (NR1/NR3B receptors; concentration of compound not given or dose-dependent, listed as 5, 7-di-Cl-Kynurenate): blocks | effect on glycine-evoked NR1/NR3B currents (NR1/NR3B receptors; concentration of compound not given or dose-dependent, listed as 5,7-dichlorokynurenate): completely abolished | effect on glycine-evoked NR1/NR3A currents (NR1/NR3A receptors; listed as 5, 7-di-Cl-Kynurenate): effectively blocked | effect on glycine-evoked NR1/NR3A currents (NR1/NR3A receptors; listed as 5,7-dichlorokynurenate): blocked

[Mg+2] [Mg^2+]
sensitivity of NR1/NR3B receptors to channel blocker compared to NR1/NR2A (NR2-containing) receptors (NR1/NR3B receptors; comparison with NR2 subunit-containing receptors): drastically less sensitive; also recorded: much less potently | effect on glycine-induced NR1/NR3B current (NR1/NR3B receptors; compound 0.5 mM, 10 μM glycine, holding potential −60 mV): had no effect | effect on glycine-evoked NR1/NR3B currents (NR1/NR3B receptors; [1]): weakly inhibits | effect on NR1/NR2A currents (NR1/NR2A receptors; compound 0.1 mM): inhibition | effect on glycine-evoked NR1/NR3A currents (NR1/NR3A receptors): no inhibitory effect | effect on glycine-evoked NR1/NR3A currents (NR1/NR3A receptors; higher glycine levels): potentiates peak currents without affecting the steady state current | effect on glycine-evoked NR1/NR3A currents (NR1/NR3A receptors; low glycine levels): not only failed to block glycine-evoked currents of NR1/NR3A receptors, but actually potentiated these currents; also recorded: actually potentiates

N[C@@H](CCC(=O)O)C(=O)O [glutamate]
effect on NR1/NR3B currents evoked by glycine (NR1/NR3B receptors): have little effect or only slightly potentiate the current

CC12CC3CC(C)(C1)CC(N)(C3)C2 [Memantine]
effect on NR1/NR2A currents (NR1/NR2A receptors; compound 12 μM): completely blocks

C[C@]12N[C@H](Cc3ccccc31)c1ccccc12 [MK801]
effect on glycine-evoked NR1/NR3B currents (NR1/NR3B receptors): does not block and in fact appears to slightly potentiate | sensitivity of NR1/NR3B receptors to channel blocker compared to NR1/NR2A (NR2-containing) receptors (NR1/NR3B receptors): drastically less sensitive | effect on NR1/NR2A currents (NR1/NR2A receptors; compound 10 μM): complete blockade | effect on glycine-evoked NR1/NR3A currents (NR1/NR3A receptors): not only failed to block glycine-evoked currents of NR1/NR3A receptors, but actually potentiated these currents; also recorded: potentiates

NC(CCCP(=O)(O)O)C(=O)O (stereo not shown) [APV, 2-amino-5-phosphonovalerate]
effect on glycine-evoked NR1/NR3B currents (NR1/NR3B receptors): little or no effect; also recorded: has little effect | effect on glycine-induced NR1/NR3B current (NR1/NR3B receptors): actually potentiated glycine-evoked current somewhat; also recorded: did not block the glycine-induced current, and actually potentiated the current | effect on NR1/NR2A currents (NR1/NR2A receptors; compound 10 μM): blocks | effect on glycine-evoked NR1/NR3A currents (NR1/NR3A receptors): blocked the current only slightly
